Experimental data from publication PMC13083723 (Patterns, 2026).
“And” between values parts separate entries of the source, which are not always exact repeats. Equal entries are not always repeated. Structures can show the parent of a compound that is named as a salt. Where two headings read alike, the source gives them in different places.

Tests used:
Vero-E6 cells = assay: cells; format: cell-based; details: for activation at 5 µM / activation at 10 µM / activation at 20 µM: Vero C1008, 24 h; for activation at 5 µM: read-out: PLD Effect in % 5 µM; for activation at 20 µM: read-out: PLD Effect in % 20 µM
SARS-CoV-2 [1] = details: 10 µM; cited from earlier work
SARS-CoV-2 [2] = details: cited from earlier work; for CaCo2 CPE inhibition %: Caco-2, 20 µM
A549-ACE2 cells = assay: cells; format: cell-based; details: A549-ACE2, 24 h, read-out: PLD_Effect(%) A549-ACE2
[3] = cited from earlier work
[4] = Chlorocebus sabaeus, read-out: PLD Effect in % 10 µM
[5] = Chlorocebus sabaeus, Vero C1008, read-out: PLD EC50 µM
[6] = Chlorocebus sabaeus, read-out: PLD_Effect(%) VERO-E6
[7] = value is the negative log10 of mol/L

Structure (SMILES) | activation at 5 µM (Vero-E6 cells; Chlorocebus sabaeus) | activation at 10 µM (Vero-E6 cells; [4]) | activation at 20 µM (Vero-E6 cells; Chlorocebus sabaeus) | Vero-E6 CPE inhibition % (SARS-CoV-2 [1]) | CaCo2 CPE inhibition % (SARS-CoV-2 [2]) | activation at 10 µM (Vero-E6 cells; [6]) | activation at 10 µM (A549-ACE2 cells) | further results
CN(C)C/C=C/C(=O)Nc1cc2c(Nc3ccc(F)c(Cl)c3)ncnc2cc1O[C@H]1CCOC1 [Afatinib, reference compound] | 129% | 249% | 146% | -0.39% | 60.16% |  |  | 
CCCCN(CCCC)CCC(O)c1cc2c(Cl)cc(Cl)cc2c2cc(C(F)(F)F)ccc12 (stereo not shown) [halofantrine HCl, reference compound] | 79.8% | 87% | 114% | 0.17% | 91.38% |  |  | EC50 (Vero-E6 cells; [5]): 1.66 µM
COc1ccccc1C1(O)CCN(CCCn2c3ccccc3c3ccccc32)CC1 [NNC-05-2090, reference compound] |  |  |  | -0.32% | 71.83% |  |  | PLD Effect in % 5 µM (Vero-E6 cells): 128.41%; PLD Effect in % 10 µM (Vero-E6 cells): 178.14%; PLD Effect in % 20 µM (Vero-E6 cells): 118.98%; EC50 (Vero-E6 cells; read-out: PLD EC50): 4.91 µM
Cc1cccc(C)c1NC(=O)CN1CCN(CCCC(c2ccc(F)cc2)c2ccc(F)cc2)CC1 [lidoflazine, reference compound] | 65.3% | 80.2% | 129% | 0.5% |  | 52.6% | 90.9% | EC50 (Vero-E6 cells; [5]): 5.51 µM
OCCNC1CCCc2c1[nH]c1ccc(-c3ccccc3)cc21 (stereo not shown) [casin, reference compound] |  |  |  |  | 71.19% |  |  | PLD Effect in % 5 µM (Vero-E6 cells): 116.35%; PLD Effect in % 10 µM (Vero-E6 cells): 193.97%; PLD Effect in % 20 µM (Vero-E6 cells): 134.63%; EC50 (Vero-E6 cells; read-out: PLD EC50): 3.31 µM
C[C@H](Oc1cc(-c2cnn(C3CCNCC3)c2)cnc1N)c1c(Cl)ccc(F)c1Cl [(S)-crizotinib] |  |  |  |  |  | 70.2% | 102% | IC50 ([3]; read-out: IC50 (value)): 680 nM; Ki ([3]; read-out: Ki (value)): 161 nM; pchembl_value (IC50) [3, 7]: 6.86 and 6.17; pchembl_value (Kd) [3, 7]: 7.43 and 6.28 and 7.41; pchembl_value (Ki) [3, 7]: 6.79
Cc1ccc(NC(=O)c2ccc(CN3CCN(C)CC3)cc2)cc1Nc1nc(-c2cccnc2)cs1 [masitinib (AB1010), masitinib, reference compound] | 43.1% | 45.2% | 53.3% |  | 107.90% |  |  | PLD induction assay (active) (Vero-E6 cells): active; EC50 (Vero-E6 cells; Chlorocebus sabaeus, Vero C1008, read-out: PLD EC50): 2.57 µM; CaCo2 CPE assay (active) (SARS-CoV-2 [2]; Caco-2): active
CN1C2CCC1CC(OC(c1ccc(F)cc1)c1ccc(F)cc1)C2 (stereo not shown) |  |  |  |  |  | 61.5% | 76.3% | Log 1/Ki (value) [3]: 7.86; pchembl_value (Log 1/Ki) [3]: 7.86; pchembl_value (Ki) [3, 7]: 6.84 and 6.07 and 7.94
CCCCCCCCC(=O)N[C@H](CN1CCCC1)[C@H](O)c1ccc2c(c1)OCCO2 [Genz-123346 (free base)] |  |  |  |  |  | 63.4% | 81.6% | IC50 ([3]; read-out: IC50 (value)): 9 nM; pchembl_value (IC50) [3, 7]: 8.05
COc1cc2c(NC3CCN(C(C)C)CC3)nc(C3CCCCC3)nc2cc1OCCCN1CCCC1 [UNC0638] |  |  |  |  |  | 60.7% | 112% | pchembl_value (type IC50), Histone-lysine N-methyltransferase, H3 lysine-9 specific 3 [3]: 7.26 and 7.82 and 7.92; pchembl_value (type IC50), Histone-lysine N-methyltransferase, H3 lysine-9 specific 5 [3]: 7.72; pchembl_value (type Ki), Histone-lysine N-methyltransferase, H3 lysine-9 specific 3 [3]: 8.43 and 7.75; IC50 ([3]; read-out: IC50 (value), Histone-lysine N-methyltransferase, H3 lysine-9 specific 3): 55 nM and 15 nM; IC50 ([3]; read-out: IC50 (value), Histone-lysine N-methyltransferase, H3 lysine-9 specific 5): 19 nM; IC50 ([3]; read-out: IC50 (value), Lysine-specific histone demethylase 1): 180 nM; Ki ([3]; read-out: Ki (value), Histone-lysine N-methyltransferase, H3 lysine-9 specific 3): 3.7 nM; pchembl_value (type IC50), Lysine-specific histone demethylase 1 [3, 7]: 6.75
CCN(CC)CCOC(=O)C(c1ccccc1)C1CCCCC1 (stereo not shown) [DROFENINE HYDROCHLORIDE] |  |  |  |  |  | 52% | 53.9% | pchembl_value (AC50) [3]: 6.66 and 7.47
CNCC[C@H](Oc1cccc2ccccc12)c1cccs1 [DULOXETINE HYDROCHLORIDE] |  |  |  |  |  | 92.6% | 91.5% | IC50 [3]: 440 nM
COc1cc(C(=O)NC2CCN(C)CC2)c(F)cc1Nc1ncc2c(n1)N(C1CCCC1)CC(F)(F)C(=O)N2C [TAK-960, reference compound] |  |  |  | 2.67% | 91.64% |  |  | 
N[C@H]1CC[C@H](N[C@@H]2C[C@H]2c2ccccc2)CC1 [ORY-1001 (RG-6016) 2HCl] |  |  |  |  |  | 65.7% | 98.4% | Ki [3]: 50 nM; pchembl_value [3]: 9.85 and 7.30 and 7.48
CC(CN1c2ccccc2Sc2ccccc21)N(C)C (stereo not shown) [PROMETHAZINE HYDROCHLORIDE] |  |  |  |  |  | 55.4% | 96.5% | AC50 [3]: 30 nM
CN1CCC(Nc2ncc3ncnc(Nc4ccc(F)c(Cl)c4)c3n2)CC1 [BiBX-1382, reference compound] | 85.8% | 75.5% | -0.64% | 0.28% |  |  |  | EC50 (Vero-E6 cells; [5]): 0.61 µM
